Assay results as given in patent EP1178110A1, “EDG8 receptor for sphingosine 1-phosphate , its preparation and use” (Aventis Pharma Deutschland GmbH, priority 2000, dated 2002).

Experiments:
human EDG8, SEQ ID NO. 2 = assay: FLIPR assay of intracellular Ca2+ mobilization in transiently transfected CHO cells; type: cell-based; settings: for increase in intracellular Ca^2+: lipids at 10, 100 and 1000 nM, CHO cells with EDG8 and Gα16 or Gαqi5 (Fig.3), LPA and DHS1P active at 100 and 1000 nM, SPC and LPC tested up to 1 µM
Protocol: (§1) CHO-K1 cells were grown in basal ISCOVE medium supplemented with 10% fetal bovine serum at 37°C in a humidified 5% CO2 incubator. For transfections, 2 x 10^5 cells were seeded into 35-mm dishes. About 24 hr later cells were transiently transfected at 50-80% confluency with the indicated receptor and G-protein constructs (1µg of plasmid DNA each) using the Lipofectamine transfection reagent and the supplied protocol (GIBCO). 18-24 hr after transfection cells were seeded into 96well plates at a density of 50.000 cells per well and cultured for 18-24 additional hr until used in the functional FLIPR assays. The cDNA for Gα16 was cloned from TF1 cells by RT-PCR and ligated into the pCDNA1.1 mammalian expression vector (Invitrogen). Murine wild type Gαq was cloned from cells by RT-PCR and inserted into the BamHl-Nsil-sites of pCDNA1.1. To create the C-terminally modified Gαqi5 subunit, in which the last five aa of wt Gαq were replaced with the correspoding Gαi sequence, a 175-bp Bg/II-NsiI fragment was replaced, in a two piece ligation, with a synthetic DNA fragment, containing the desired codon changes. The correctness of all PCR-derived sequences was verified by sequencing in both directions.
(§2) Twenty-four hours after transfection, cells were splitted into 96-well, black-wall microplates (Corning) at a density of 50,000 cells per well. 18-24 hr later, cells were loaded with 95µl of HBSS containing 20 mM Hepes, 2.5 mM probenecid, 4 µM fluorescent calcium indicator dye Fluo4 (Molecular Probes) and 1% fetal bovine serum for 1 h(37°C, 5% CO2). Cells were washed three times with HBSS containing 20 mM Hepes and 2.5 mM probenecid in a cell washer. After the final wash, the solution was aspirated to a residual volume of 100 µl per 96 well. Lipid ligands were dissolved in DMSO as 2 mM stock solutions (treated with ultrasound when necessary) and diluted at least 1:100 into HBSS containing 20 mM HEPES, 2.5 mM probenecid and 0.4 mg/ml fatty acid free bovine serum albumine. Lipids were aliquoted as 2X solutions into a 96 well plate prior to the assay. The fluorometric imaging plate reader (FLIPR, Molecular Devices) was programmed to transfer 100 µl from each well of the ligand microplate to each well of the cellplate and to record fluorescence during 3 min in 1 second intervals during the first minute and 3 second intervals during the last two minutes. Total fluorescence counts from the 18-s to 37-s time points are used to determine agonist activity. The instrument software normalizes the fluorescent reading to give equivalent initial readings at time zero.

EDG1 receptor = assay: as above; type: cell-based, human; settings: S1P 10, 100 and 1000 nM; CHO cells with EDG1 (Fig.2B)
Protocol: as §1, §2

EDG3 receptor = assay: as above; type: cell-based, human; settings: S1P 10, 100 and 1000 nM; CHO cells with EDG3 (Fig.2C)
Protocol: as §1, §2

EDG5 receptor = assay: as above; type: cell-based, human; settings: S1P 10, 100 and 1000 nM; CHO cells with EDG5 (Fig.2D)
Protocol: as §1, §2

EDG6 receptor = assay: as above; type: cell-based, human; settings: S1P 10, 100 and 1000 nM; CHO cells with EDG6, no cotransfected G-protein α subunit (Fig.2E)
Protocol: as §1, §2

[1] = system: CHO cells transfected with empty vector DNA; assay: FLIPR assay of intracellular Ca2+ mobilization in control CHO cells without receptor; type: cell-based, chinese hamster; settings: S1P 10, 100 and 1000 nM; empty vector DNA (Fig.2A)
Protocol: CHO-K1 cells were grown in basal ISCOVE medium supplemented with 10% fetal bovine serum at 37°C in a humidified 5% CO2 incubator. For transfections, 2 x 10^5 cells were seeded into 35-mm dishes. About 24 hr later cells were transiently transfected at 50-80% confluency with the indicated receptor and G-protein constructs (1µg of plasmid DNA each) using the Lipofectamine transfection reagent and the supplied protocol (GIBCO). 18-24 hr after transfection cells were seeded into 96well plates at a density of 50.000 cells per well and cultured for 18-24 additional hr until used in the functional FLIPR assays. The cDNA for Gα16 was cloned from TF1 cells by RT-PCR and ligated into the pCDNA1.1 mammalian expression vector (Invitrogen). […]
Twenty-four hours after transfection, cells were splitted into 96-well, black-wall microplates (Corning) at a density of 50,000 cells per well. […] The fluorometric imaging plate reader (FLIPR, Molecular Devices) was programmed to transfer 100 µl from each well of the ligand microplate to each well of the cellplate and to record fluorescence during 3 min in 1 second intervals during the first minute and 3 second intervals during the last two minutes. Total fluorescence counts from the 18-s to 37-s time points are used to determine agonist activity. The instrument software normalizes the fluorescent reading to give equivalent initial readings at time zero.

lysophosphatidylcholine [LPC] was tested, and the “increase in intracellular Ca^2+” value (human EDG8, SEQ ID NO. 2) was “failed to generate any significant response”.
For `CCCCCCCCCCCCCCCC(O)C(N)COP(=O)(O)O` (stereo not drawn) [DHS1P], the “increase in intracellular Ca^2+” value (human EDG8, SEQ ID NO. 2) was “evoked [Ca^2+]i increases”.
`CCCCCCCC/C=C\CCCCCCCC(=O)OCC(O)COP(=O)(O)O` (stereo not drawn) [LPA, lysophosphatidic acid] was tested, and the “increase in intracellular Ca^2+” value (human EDG8, SEQ ID NO. 2) was “evoked [Ca^2+]i increases”.
`CCCCCCCCCCCCCC=CC(O)C(N)COP(=O)([O-])OCC[N+](C)(C)C` (stereo not drawn) [SPC, sphingosylphosphorylcholine] was tested, and the “increase in intracellular Ca^2+” value (human EDG8, SEQ ID NO. 2) was “failed to generate any significant response”.
In the case of `CCCCCCCCCCCCC/C=C/[C@@H](O)[C@@H](N)COP(=O)(O)O` [S1P, sphingosin 1-phosphate], the “release of [Ca^2+]i” value (human EDG8, SEQ ID NO. 2; S1P 10, 100 and 1000 nM, CHO cells with EDG8, no cotransfected G-protein α subunit (Fig.2F)) is reported as “did not release [Ca^2+]i”, the “mobilization of Ca^2+” value (human EDG8, SEQ ID NO. 2; S1P 10, 100 and 1000 nM, CHO cells with EDG8 cotransfected with Gα16 or Gαqi5 (Fig.2F)) is reported as “gained the ability to mobilize Ca^2+” and the “increase in intracellular Ca^2+” value (human EDG8, SEQ ID NO. 2) is reported as “most potent activator of EDG8”. The “mobilization of [Ca^2+]i” value (EDG1 receptor) was “mobilize [Ca^2+]i”, the “mobilization of [Ca^2+]i” value (EDG3 receptor) was “mobilize [Ca^2+]i” and the “mobilization of [Ca^2+]i” value (EDG5 receptor) was “mobilize [Ca^2+]i”. The “Ca^2+ increase above basal levels” value (EDG6 receptor) was “failed to detect a significant Ca^2+ increase above basal levels” and the “rises in intracellular Ca^2+” value [1] was “None of the applied S1P concentrations was capable of eliciting significant rises in intracellular Ca^2+”.
